Experimental data taken from patent publication US20060165814A1, “Amines, combination of amines and vanadium and amine vanadium salts for the treatment or prevention of dyslipidemia” (Genmedica Therapeutics SL, priority 2004, published 2006).

How the values were obtained:
[1] = test system: streptozotocin-induced diabetic rats; test: Oral chronic administration, plasma cholesterol in diabetic rats; format: in vivo, rat; conditions: single daily oral dose for 17 days, 5 μmol/kg/day day 0-7 and 10 μmol/kg/day day 8-17
From the text: FIG. 1 is a bar graph of the plasma concentration of cholesterol (Ch) (expressed in mmol/L) measured in nondiabetic rats (C), streptozotocin-induced diabetic rats (D) or diabetic rats treated for 17 days with a single daily oral dose of hexaquis(benzylammonium) decavanadate (5 μmol/kg/day between day 0 and day 7 and 10 μmol/kg/day from day 8 to day 17 of treatment) (BV). Cholesterol concentrations in the D group were statistically significant from the C group at p<0.05.
Oral administration of hexaquis(benzylammonium) decavanadate was tested to determine whether it ameliorated dyslipidemia associated to diabetes. Diabetes was induced in rats by intravenous administration of streptozotocin, causing a substantial increase in plasma cholesterol concentrations compared to nondiabetic rats (FIG. 1).

[2] = test system: streptozotocin-induced diabetic rats; test: Subcutaneous chronic administration, plasma triglyceride and free fatty acids in diabetic rats; format: in vivo, rat; conditions: subcutaneously infused for 28 days; B6V10 1.25 or 2.5 μmol/kg/day, V10 1.25 μmol/kg/day; streptozotocin (100 mg/kg) diabetic rats
From the text: FIG. 2A though 2D are bar graphs showing plasma concentrations of insulin (FIG. 2A), glucose (FIG. 2B), free fatty acids (FIG. 2C) and triglycerides (FIG. 2D) measured in nondiabetic rats (C), streptozotocin-induced diabetic rats (Diab) or diabetic rats treated for 28 days with subcutaneously infused decanadate (V10, 1.25 μmol/kg/day) or hexaquis(benzylammonium) decavanadate (B6V10) at two different doses (1.25 μmol/kg/day or 2.5 μmol/kg/day). * indicates the existance of statistically significant differences from the Diab group at p<0.05.
Subcutaneous administration of hexaquis(benzylammonium) decavanadate was tested to determine whether it ameliorated the dyslipidemia associated with diabetes. Diabetes was induced in rats by intravenous administration of a large dose of streptozotocin (100 mg/kg), causing a complete disappearance of plasma insulin and very high concentrations of plasma glucose (FIGS. 2A and 2B). Induction of diabetes was also associated with substantial increases in plasma free fatty acid and triglyceride concentrations compared to nondiabetic rats (FIGS. 2C and 2D). Under these conditions, subcutaneous treatment with different doses of hexaquis(benzylammonium) decavanadate normalized plasma concentrations of free fatty acids and triglycerides so that no differences between control and hexaquis(benzylammonium) decavanadate-treated rats were detectable (FIGS. 2C and 2D).

[3] = test system: streptozotocin-induced diabetic rats; test: Subcutaneous chronic administration, plasma cholesterol in diabetic rats; format: in vivo, rat; conditions: subcutaneously infused for 28 days; B6V10 1.25 or 2.5 μmol/kg/day, V10 1.25 μmol/kg/day; streptozotocin (100 mg/kg) diabetic rats
From the text: FIG. 3A through 3D show plasma concentrations of total cholesterol (FIG. 3A), nonesterified cholesterol (FIG. 3B), esterified cholesterol (FIG. 3C) and HDL-cholesterol (FIG. 3D) measured in nondiabetic rats (C), streptozotocin-induced diabetic rats (Diab) or diabetic rats treated for 28 days with subcutaneously infused decanadate (V10, 1.25 μmol/kg/day) or hexaquis(benzylammonium) decavanadate (B6V10) at two different doses (1.25 μmol/kg/day or 2.5 μmol/kg/day). * indicates the existance of statistically significant differences from the Diab group at p<0.05.
Subcutaneous administration of hexaquis(benzylammonium) decavanadate was performed to determine the effect on altered plasma concentrations of cholesterol associated to diabetes. Diabetes was induced in rats by intravenous administration of a large dose of streptozotocin (100 mg/kg). Experimentally-induced Diabetes was associated with substantial increases in total plasma cholesterol and nonesterified cholesterol and a reduction in esterified cholesterol concentrations compared to nondiabetic rats (FIG. 3A). HDL-cholesterol concentrations were unaltered by diabetes […]. Under these conditions, subcutaneous treatment with different doses of hexaquis(benzylammonium) decavanadate reduced plasma concentrations of total cholesterol and nonesterified cholesterol and increased esterified cholesterol concentrations so no differences between control and hexaquis(benzylammonium) decavanadate-treated rats were detectable (FIG. 3C).

rat adipocytes = conditions: amine in combination with low concentrations of vanadate; cited from earlier work

Compound | plasma cholesterol levels [1] | plasma concentration of free fatty acids [2] | plasma concentration of triglycerides [2] | plasma concentration of esterified cholesterol [3] | plasma concentration of nonesterified cholesterol [3] | plasma concentration of total cholesterol [3] | glucose transport (rat adipocytes)
hexaquis(benzylammonium) decavanadate | substantially reduced | normalized | normalized | increased | reduced | reduced | 
NCCc1ccc(O)cc1 [tyramine] |  |  |  |  |  |  | stimulates glucose transport
NCc1ccccc1 [benzylamine] |  |  |  |  |  |  | stimulates glucose transport
[O]=[V]([O-])([O-])[O][V]1(=[O])[O][V]2(=[O])[O][V](=[O])([O][V](=[O])([O-])[O-])[O][V](=[O])([O]2)[O][V]2(=[O])[O][V](=[O])([O][V](=[O])([O-])[O-])[O][V](=[O])([O]1)[O]2 (stereo not shown) [decavanadate, reference compound] |  | did not alter | did not alter | not significantly different | not significantly different | significant reduction | 
